Like-named read-outs stand apart in the source and are kept apart here.
Tests used:
[1] = Metabolic stability in liver microsomes; format: in vitro ADME, human; conditions: for half-life at 1 μM: human, microsomes
Description: The metabolic stability of the compounds of the present disclosure in liver microsomes was determined by the following experimental method.
• 1. Human liver microsomes (Corning 452117), Beagle dog liver microsomes (XENOTECH D1000), SD rat liver microsomes (XENOTECH R1000) and CD-1 mouse liver microsomes (XENOTECH M1000) • 2. Na2HPO4 (Tianjin Guangfu Fine Chemical Research Institute 20180130) • 3. KH2PO4 (Tianjin Guangfu Fine Chemical Research Institute 20180920) • 4. MgCl2 (Tianjin Guangfu Fine Chemical Research Institute 20191216) • 5. NADPH (Solarbio 1216C022) • 6. Positive control compound verapamil (Sigma MKBV4993V) • 7. AB Sciex API4000 liquid chromatography-mass spectrometry
• 1. Preparation of 100 mM phosphate buffered saline (PBS): 7.098 g of Na2HPO4 was weighed, 500 mL of pure water was added and subjected to ultrasonic dissolution to obtain solution A. 3.400 g of KH2PO4 was weighed, 250 mL of pure water was added and subjected to ultrasonic dissolution to obtain solution B. Solution A was placed on a stirrer and solution B was slowly added until the pH value reached 7.4 to prepare 100 mM PBS buffer. • 2. Preparation of reaction system
The reaction system was prepared according to the following table:
• 3. The reaction system was placed in a 37° C. water bath and pre-incubated for 10 min. 40 μL of 10 mM NADPH solution (NADPH was dissolved in 100 mM phosphate buffer) was added to the reaction system with the final concentration of NADPH being 1 mM. 40 μL of phosphate buffer was used instead of NADPH solution as negative control. The role of the negative control was to exclude the effect of the chemical stability of the compounds themselves. • 4. 4 μL of 100 μM compound of the present disclosure and the positive control compound verapamil were added to the reaction system to initiate the reaction, with the final concentration of the compound being 1 μM. • 5. After thorough mixing on a vortex oscillator, 50 μL of the incubated sample was taken out at 0.5 min, 15 min, 30 min, 45 min and 60 min, respectively, and the reaction was stopped with 200 μL of glacial acetonitrile containing internal standard. The sample was centrifuged at 3220 g for 45 min. […]
All the data was calculated by the Microsoft Excel software. The peak area was detected by extracting the ion chromatogram. The in vitro half-life (t1/2) of the compound was determined by performing linear fitting of the natural logarithm of elimination percent of the compound and time.
The in vitro half-life (t1/2) was calculated by means of the slope k: […]
The in vitro intrinsic clearance (unit: μL/min/mg protein) was calculated using the following equation: […]

[2] = Membrane permeability and transport characteristics (Caco-2 Transwell); format: in vitro ADME; conditions: human, pH 7.4; for efflux ratio at 2 h, 10 μM: Caco-2, Papp (B-A)/Papp (A-B); for Papp A→B at 2 h, 10 μM: Caco-2, apical to basal; for Papp B→A at 2 h, 10 μM: Caco-2, basal to apical
Description: The membrane permeability and transport characteristics of the compounds of the present disclosure were determined by the following experimental method.
• 1. Caco-2 cells (ATCC) • 2. HEPES (Solarbio 804D049), penicillin/streptomycin (Solarbio 20200109) and PBS (Solarbio 20200620) • 3. Fetal bovine serum (FBS) (Sigma WXBD0055V), fluorescein (Sigma MKCJ3738) and NaHCO3 (Sigma SLBZ4647) • 4. Hank's balanced salt solution (HBSS) (Gibco 2085528), non-essential amino acid (NEAA) (Gibco 2211548) and Trypsin/EDTA (Gibco 2120732) • 5. High glucose DMEM (Corning 20319014) • 6. HTS Transwell-96 Well Permeable (Corning, 3391) • 7. Resistance tester (Millipore, Millicell® ERS-2) • 8. Cellometer® Vision (Nexcelom Bioscience) • 9. Infinite 200 PRO microplate reader (Tecan, Infinite M200PRO) • 10. Positive control compounds metoprolol (Sinopharm 100084-201403), erythromycin (MCE 84550) and cimetidine (Sinopharm 100158-201406) • 11. ABI QTrap 5500 liquid chromatography-mass spectrometry
• 1) Transport buffer (HBSS containing 25 mM HEPES, pH 7.4) was prepared: 5.958 g of HEPES and 0.35 g of NaHCO3 were accurately weighed, 900 mL of pure water was added to dissolve same, then 100 mL of 10×HBSS was added, uniform stirring was performed, the pH was adjust to 7.4, and filtering was performed. • 2) Caco-2 cell culture medium was prepared: FBS, penicillin/streptomycin, kanamycin and NEAA were added to high glucose DMEM (containing L-glutamine) medium to prepare a cell culture medium containing 10% FBS, 100 U/mL penicillin/0.1 mg/mL streptomycin, 0.6 μg/mL kanamycin and 1×NEAA. • 3) Cells were cultured in T-75 culture flasks in an incubator at 37° C. and 5% CO2, and the medium was discarded when the cell growth density reached 80-90%. The cells were rinsed with 5 mL of PBS, 1.5 mL of Trypsin/EDTA was added, then the cells were incubated in an incubator at 37° C. for 5-10 min until the cells fell off in the form of quicksand, and finally Trypsin/EDTA was neutralized with an FBS-containing medium. 4) The cell suspension was centrifuged at 120 g for 10 min, and the supernatant was discarded. • 5) The cell culture medium was added to re-suspend the cells to obtain a cell suspension with a density of […] cells/mL.
• 1) 50 μL of medium was added to each well of Transwell chamber, and 25 mL of medium was added to the lower layer. The Transwell chamber was preheated in an incubator at 37° C. and 5% CO2 for 1 h. • 2) 50 μL of the cell suspension was added to each well of the preheated Transwell chamber to a final seeding density of 2.4×10^5 cells/cm. • 3) The cells were cultured for 14-18 days, the medium was changed every other day, and the medium was changed within 48 h after the initial seeding in the plate. The medium must be changed one day before the experiment.
• 1) After 14 days of cell culture, the cells were fused and differentiated, ready for transport experiment. • 2) The resistance of monolayer cell membrane was measured by the resistance tester, and the resistance of each well was recorded. • 3) After the measurement was completed, the Transwell culture plate was re-incubated. • 4) The TEER value was calculated: […]

[3] = pH 7.4, human liver microsomes 0.5 mg/mL, 1 μM compound, 1 mM NADPH, 37° C., read-out: Stability in human liver microsomes t1/2

SMILES	half-life at 1 μM [1, 3] [h]	efflux ratio at 2 h, 10 μM [2]	Papp A→B at 2 h, 10 μM [2] [×10⁻⁶ cm/s]	Papp B→A at 2 h, 10 μM [2] [×10⁻⁶ cm/s]	other results
CC[C@@]1(O)C(=O)OCc2c1cc1n(c2=O)Cc2c-1nc1cc3c(cc1c2CNC(=O)C(O)C1CC1)OCO3 (single isomer, unassigned) [Compound 14-P1]	1.1	–	–	–	–
CC[C@@]1(O)C(=O)OCc2c1cc1n(c2=O)Cc2c-1nc1cc3c(cc1c2CNC(=O)C(O)C1CC1)OCO3 (single isomer, unassigned) [Compound 14-P2]	–	–	–	–	Stability in human liver microsomes t1/2 ([1]; human liver microsomes 0.5 mg/mL, 1 μM compound, 1 mM NADPH, 37° C.): 0.835 h
CC[C@@]1(O)C(=O)OCc2c1cc1n(c2=O)Cc2c-1nc1cc3c(c(F)c1c2CNC(=O)[C@@H](O)C1CC1)OCO3 (single isomer, unassigned) [Compound 37-P1]	–	–	–	–	half-life at 1 μM ([1]; pH 7.4): 1.75 h
CC[C@@]1(O)C(=O)OCc2c1cc1n(c2=O)Cc2c-1nc1cc3c(cc1c2CNC(=O)C(O)C1CC1)OCO3 (stereo partly drawn) [Compound 14, 2-cyclopropyl-N-(((S)-7-ethyl-7-hydroxy-8,11-dioxo-7,8,11,13-tetrahydro-10H-[1,3]dioxolo[4,5-g]pyrano[3′,4′:6,7]indolizino[1,2-b]quinolin-14-yl)methyl)-2-hydroxyacetamide]	–	15.2	0.26	3.95	–
[2H]C1([2H])Oc2cc3nc4c(c(CNC(=O)C(O)C5CC5)c3cc2O1)Cn1c-4cc2c(c1=O)COC(=O)[C@]2(O)CC (stereo partly drawn) [Compound 39, 2-cyclopropyl-N-(((S)-7-ethyl-7-hydroxy-8,11-dioxo-7,8,11,13-tetrahydro-10H-[1,3]dioxolo[4,5-g]pyrano[3′,4′:6,7]indolizino[1,2-b]quinolin-14-yl-2,2-d2)methyl)-2-hydroxyacetamide]	4.01	5.9	0.71	4.21	–

From patent publication US20250270227A1, “CAMPTOTHECIN DERIVATIVE, AND PHARMACEUTICAL COMPOSITION AND USE THEREOF” (SIMCERE ZAIMING PHARMACEUTICAL CO., LTD., priority 2021, published 2025)
